Our source for the Ki values is patent EP4631938A1, “NITROGEN-CONTAINING HETEROCYCLE WITH SEROTONIN RECEPTOR-BINDING ACTIVITY AND CARBOCYCLIC DERIVATIVE” (Shionogi & Co., Ltd, priority 2022, dated 2024).

Experiment [1] has as its target T1, human recombinant 5-HT2A receptor (Homo sapiens, UniProt P28223).
T1 construct: expressed in transfected cells; host or cells: Jump-In HEK cells (membrane preparation)
Description: Test Example 1: 5-HT2A receptor binding inhibition test ([3H]-Ketanserin; non-specific ligand Serotonin HCl). The protocol: The Kd value is calculated when the lot of the cell membrane is changed. 1 mmol/L non-specific binding calculating compound dissolved in DMSO or DMSO is previously dispensed to the microplate by 0.5 µL, and the cell membrane is diluted with an Assay buffer. The radioactive ligand solution is diluted step by step, and counts are checked with a liquid scintillator. The Assay buffer containing diluted cell membranes is dispensed by 50 µL/well into the microplate. The radioactive ligand solution is then dispensed by 50 µL/well into the microplate and the plate is sealed. The microplate is allowed to stand for 1.5 hours at room temperature (25°C). During this time, 50 mmol/L Tris-HCl (pH 7.4) is dispensed by 50 µL/well on the GF/B UniFilter plate and allowed to stand at 4°C for 1 hour or longer. Thereafter, filtration is performed with a Cell Harvester (PerkinElmer). The radioactive ligand solution is dispensed by 10 µL/well into empty wells of the GF/B UniFilter plate. After drying the GF/B UniFilter plate at room temperature, MicroScinti20 is dispensed by 50 µL/well into the GF/B UniFilter plate, and the plate is sealed. GF/B UniFilter plate is allowed to stand at room temperature overnight. The radioactivity of [^3H]-Ketanserin bound to the 5-HT2A receptor is measured using Microbeta2 (PerkinElmer) at a measurement time of 1 min/well. The Saturation curve is drawn from the measured value, and the Kd value is calculated from the slope of the Scatchard Plot.
A compound solution dissolved in DMSO is dispensed to a microplate by 0.5 µL, and a cell membrane and a hot ligand are each diluted with an Assay buffer. The Assay buffer containing diluted cell membrane is then dispensed by 50 µL/well into the microplate. The radioactive ligand solution is then dispensed by 50 µL/well into the microplate and the plate is sealed. Thereafter, the microplate is allowed to stand at room temperature (25°C) for 1.5 hours. During this time, 50 mmol/L Tris-HCl (pH 7.4) is dispensed by 50 µL/well into the GF/B UniFilter plate and allowed to stand at 4°C for 1 hour or longer. Thereafter, filtration is performed with a Cell Harvester (PerkinElmer). After drying the GF/B UniFilter plate at room temperature, MicroScinti20 is dispensed by 50 µL/well into the GF/B UniFilter plate, and the plate is sealed. GF/B UniFilter plate is allowed to stand at room temperature overnight. The radioactivity of [^3H]-Ketanserin bound to the 5-HT2A receptor is measured using Microbeta2 (PerkinElmer) at a measurement time of 1 min/well. Non-specific binding is calculated from the radioactivity of [^3H]-Ketanserin in the presence of 500 µmol/L Serotonin HCl of unlabeled ligand, and total binding is calculated from the radioactivity of [^3H]-Ketanserin in the absence of the compound of the present invention (Vehicle). Finally, the Ki value is calculated from the dose-response curve.
(The binding activity of the compound according to the present invention is calculated from the following binding inhibition rate (%).) Inhibition rate (%) = [1−(c−a)/(b−a)] × 100 [formula] • a; average cpm of non-specific binding • b; average cpm of total binding • c; cpm in the presence of the test compound
The compounds of the present invention were tested essentially as described above.

For experiment [2], the target named is T2, human recombinant 5-HT2C receptor (Homo sapiens, UniProt P28335).
T2 construct: expressed in transfected cells; host or cells: Jump-In HEK cells (membrane preparation)
T2 sequence (P28335 33-458): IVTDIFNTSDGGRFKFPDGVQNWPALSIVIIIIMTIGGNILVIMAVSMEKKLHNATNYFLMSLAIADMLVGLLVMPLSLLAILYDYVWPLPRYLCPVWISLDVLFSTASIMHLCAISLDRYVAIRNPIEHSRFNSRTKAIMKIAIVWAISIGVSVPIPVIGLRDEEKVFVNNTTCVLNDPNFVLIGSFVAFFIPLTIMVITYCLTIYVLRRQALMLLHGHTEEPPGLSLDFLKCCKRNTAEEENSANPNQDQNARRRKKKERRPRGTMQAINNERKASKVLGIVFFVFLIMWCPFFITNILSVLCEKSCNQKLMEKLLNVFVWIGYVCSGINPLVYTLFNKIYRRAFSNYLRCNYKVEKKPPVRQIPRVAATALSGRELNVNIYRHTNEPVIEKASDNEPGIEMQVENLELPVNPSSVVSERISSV
Description: Test Example 2-2: 5-HT2C receptor binding inhibition test ([3H]-Mesulergine; non-specific ligand Ketanserin). Conditions: non-specific binding with 500 µmol/L Ketanserin, 37°C, 2 hours. Summed up: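 Membranes expressing the receptor were incubated with compound and [3H]-Mesulergine for 2 h at 37 °C, then filtered and counted by scintillation. Non-specific binding was defined with 500 µmol/L Ketanserin. Percent inhibition versus vehicle gave dose-response curves, from which Ki was derived using a Kd from Scatchard saturation analysis.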

pKi: −log10 of the molar value. Where two headings read alike, the source gives them in different places.

A word on the pKi: it is −log10 of the Ki, conventionally taken in molar units.

T1 sequence (P28223 whole entry): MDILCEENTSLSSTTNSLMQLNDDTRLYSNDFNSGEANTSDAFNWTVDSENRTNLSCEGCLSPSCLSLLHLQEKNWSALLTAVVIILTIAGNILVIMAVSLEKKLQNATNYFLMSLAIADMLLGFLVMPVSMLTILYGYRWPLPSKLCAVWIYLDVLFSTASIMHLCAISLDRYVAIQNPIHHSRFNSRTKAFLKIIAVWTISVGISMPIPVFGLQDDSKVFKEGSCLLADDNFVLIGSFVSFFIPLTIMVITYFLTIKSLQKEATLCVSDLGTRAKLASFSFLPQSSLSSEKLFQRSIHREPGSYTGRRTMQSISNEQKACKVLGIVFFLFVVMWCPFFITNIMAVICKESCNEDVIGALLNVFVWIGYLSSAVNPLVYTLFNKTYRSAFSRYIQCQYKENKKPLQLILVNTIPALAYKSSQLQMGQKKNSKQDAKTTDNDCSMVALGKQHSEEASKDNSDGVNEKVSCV

In the case of `Cn1ncc(Br)c1-c1cc(Nc2ncc(C(F)(F)F)cc2F)ccc1OCCO` [Compound I-006], the pKi was 9.50 in experiment [1] and 9.57 in experiment [2].
In the case of `Cn1ncc(F)c1-c1cc(Nc2ncc(C(F)(F)F)cc2F)cnc1OCCO` [Compound I-127], the pKi in experiment [2] is 8.46.
For the compound `Cc1cnn(C)c1-c1cc(Nc2ncc(C(F)(F)F)cc2F)ccc1OCCO` [Compound I-008], the pKi in experiment [1] ([3H]-Ketanserin, non-specific binding with 500 µmol/L Serotonin HCl, room temperature (25°C), 1.5 hours, read-out: h 5-HT2A Ki) is 9.46; in experiment [2], 9.09.
